Data on 32 molecules can be found in US12492186B2, “Bicyclic heterocyclic compounds useful as IRAK4 inhibitors” (BRISTOL-MYERS SQUIBB COMPANY, priority 2019, dated 2025).

Molecules are shown by their SMILES.

The experiment deals with IRAK4 (Homo sapiens (Human), UniProt Q9NWZ3). As to the kind of experiment: IRAK4 Inhibition Assay. In kind it is biochemical. The following applies: ATP 500 μM; IRAK4 0.6 nM; 60 min room temperature; Caliper LABCHIP 3000. The method, then: The assays were performed in U-bottom 384-well plates. The final assay volume was 30 μL prepared from 15 μL additions of enzyme and substrates (fluoresceinated peptide and ATP) and test compounds in assay buffer (20 mM HEPES pH 7.2, 10 mM MgCl2, 0.015% Brij 35 and 4 mM DTT). The reaction was initiated by the combination of IRAK4 with substrates and test compounds. The reaction mixture was incubated at room temperature for 60 min. and terminated by adding 45 μL of 35 mM EDTA to each sample. The reaction mixture was analyzed on the Caliper LABCHIP® 3000 (Caliper, Hopkinton, MA) by electrophoretic separation of the fluorescent substrate and phosphorylated product. Inhibition data were calculated by comparison to no enzyme control reactions for 100% inhibition and vehicle-only reactions for 0% inhibition. The final concentrations of reagents in the assays are ATP, 500 μM; FL-IPTSPITTTYFFFKKK peptide 1.5 μM; IRAK4, 0.6 nM; and DMSO, 1.6%.
Chain of IRAK4 (Q9NWZ3 whole entry, species assumed): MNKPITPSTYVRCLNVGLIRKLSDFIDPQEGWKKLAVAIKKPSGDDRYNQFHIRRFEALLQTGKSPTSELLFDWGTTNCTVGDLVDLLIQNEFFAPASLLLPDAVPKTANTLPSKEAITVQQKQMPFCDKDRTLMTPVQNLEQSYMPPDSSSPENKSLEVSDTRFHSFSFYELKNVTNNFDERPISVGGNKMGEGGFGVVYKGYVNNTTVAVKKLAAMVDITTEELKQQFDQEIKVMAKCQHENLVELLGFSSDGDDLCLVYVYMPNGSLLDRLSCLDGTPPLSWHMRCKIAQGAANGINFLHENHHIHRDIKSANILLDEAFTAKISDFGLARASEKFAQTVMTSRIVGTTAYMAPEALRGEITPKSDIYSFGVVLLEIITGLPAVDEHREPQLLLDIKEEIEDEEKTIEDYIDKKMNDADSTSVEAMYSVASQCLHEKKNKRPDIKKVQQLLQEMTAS

The IC50 is the point on the concentration scale where inhibition reaches its midpoint. On to `O=C(NCCN1CCOCC1)c1cnc2ccc(-c3cn[nH]c3)cc2c1NCC(F)F` [Example 63, 4-((2,2-difluoroethyl)amino)-N-(2-morpholinoethyl)-6-(1H-pyrazol-4-yl)quinoline-3-carboxamide], for which the IC50 was found to be 34.4 nM.

Turning to `CC(C)Nc1c(C(=O)NC2CCCOC2)cnc2ccc(-c3cn[nH]c3)cc12` (centres unmarked) [Example 8, 4-(isopropylamino)-6-(1H-pyrazol-4-yl)-N-(tetrahydro-2H-pyran-3-yl)quinoline-3-carboxamide], the IC50 is 24.1 nM.

Turning to `CC(C)Nc1c(C(=O)NC(C)(C)C(=O)N2CCOCC2)cnc2ccc(-c3cn[nH]c3)cc12` [Example 91, 4-(isopropylamino)-N-(2-methyl-1-morpholino-1-oxopropan-2-yl)-6-(1H-pyrazol-4-yl) quinoline-3-carboxamide], the IC50 was found to be 1810 nM. With `Cc1cc(-c2ccc3ncc(C(=O)NCCC(C)(C)O)c(NC(C)C)c3c2)cnc1F` [Example 71, 6-(6-fluoro-5-methylpyridin-3-yl)-N-(3-hydroxy-3-methylbutyl)-4-(isopropylamino)quinoline-3-carboxamide], the IC50 was determined as 307 nM. As for `CC(C)Nc1c(C(=O)NCCC2CC2)cnc2ccc(-c3ccnc(C#N)c3)nc12` [Example 157, 6-(2-cyanopyridin-4-yl)-N-(2-cyclopropylethyl)-4-(isopropylamino)-1,5-naphthyridine-3-carboxamide], the 50% inhibitory concentration (IC50) came to 280 nM.

`CC(C)Nc1c(C(=O)NC2CCN(S(=O)(=O)CCC(F)(F)F)CC2)cnc2ccc(-c3cn[nH]c3)cc12` [Example 89, 4-(isopropylamino)-6-(1H-pyrazol-4-yl)-N-(1-((3,3,3-trifluoropropyl)sulfonyl)piperidin-4-yl)quinoline-3-carboxamide]: the IC50 worked out at 32.8 nM. In the case of `CC(=O)N[C@H]1CC[C@H](NC(=O)c2cnc3ccc(-c4cncc(C#N)c4)nc3c2NC(C)C)CC1` [Example 154, N-((1r,4r)-4-acetamidocyclohexyl)-6-(5-cyanopyridin-3-yl)-4-(isopropylamino)-1,5-naphthyridine-3-carboxamide], the IC50 stood at 92.7 nM. Consider `CC(C)Nc1c(C(=O)NCCC2CC2)cnc2ccc(-c3cncc(C#N)c3)nc12` [Example 151, 6-(5-cyanopyridin-3-yl)-N-(2-cyclopropylethyl)-4-(isopropylamino)-1,5-naphthyridine-3-carboxamide], for which the IC50 is 1280 nM.

For `CC(C)Cc1nc(-c2cnc3ccc(-c4cn[nH]c4)cc3c2NC(C)C)n[nH]1` [Example 124, 3-(5-isobutyl-1H-1,2,4-triazol-3-yl)-N-isopropyl-6-(1H-pyrazol-4-yl)quinolin-4-amine], the IC50 was 107 nM. Take `CC(C)(O)CCNC(=O)c1cnc2ccc(-c3cn[nH]c3)cc2c1NC1COC1` [Example 40, N-(3-hydroxy-3-methylbutyl)-4-(oxetan-3-ylamino)-6-(1H-pyrazol-4-yl)quinoline-3-carboxamide]: the IC50 came to 33.5 nM.

Take `CC(C)Nc1c(C(=O)NCC2(CO)COC2)cnc2ccc(-c3cn[nH]c3)cc12` [Example 20, N-((3-(hydroxymethyl)oxetan-3-yl)methyl)-4-(isopropylamino)-6-(1H-pyrazol-4-yl)quinoline-3-carboxamide]: the IC50 was 48.9 nM. Under `CC(C)(O)CCNC(=O)c1cnc2ccc(-c3cncs3)cc2c1NC1COC1` [Example 41, N-(3-hydroxy-3-methylbutyl)-4-(oxetan-3-ylamino)-6-(thiazol-5-yl)quinoline-3-carboxamide] stands 210 nM; under `CC(=O)N1CCCC1CCNC(=O)c1cnc2ccc(-c3cn[nH]c3)cc2c1NC(C)C` (centres unmarked) [Example 85, N-(2-(1-acetylpyrrolidin-2-yl)ethyl)-4-(isopropylamino)-6-(1H-pyrazol-4-yl) quinoline-3-carboxamide], 20.7 nM; under `CC(C)Nc1c(C(=O)NCCc2c[nH]cn2)cnc2ccc(-c3cn[nH]c3)cc12` [Example 102, N-(2-(1H-imidazol-4-yl)ethyl)-4-(isopropylamino)-6-(1H-pyrazol-4-yl)quinoline-3-carboxamide], 23 nM. As to `CC(C)Nc1c(C(=O)NCCC(C)(C)O)cnc2ccc(-c3cccnc3)nc12` [Example 146, N-(3-hydroxy-3-methylbutyl)-4-(isopropylamino)-6-(pyridin-3-yl)-1,5-naphthyridine-3-carboxamide], the IC50 stood at 89.8 nM. As to `CCCc1nc(-c2cnc3ccc(-c4cn[nH]c4)cc3c2NC(C)C)n[nH]1` [Example 125, N-isopropyl-3-(5-propyl-1H-1,2,4-triazol-3-yl)-6-(1H-pyrazol-4-yl)quinolin-4-amine], the IC50 is 83.6 nM. The figure for `CC(O)CNc1c(C(=O)NC[C@@H](F)C(C)(C)O)cnc2ccc(-c3cncs3)cc12` (stereo partly drawn) [Example 32, N—((R)-2-fluoro-3-hydroxy-3-methylbutyl)-4-((2-hydroxypropyl)amino)-6-(thiazol-5-yl)quinoline-3-carboxamide] is 116 nM. The figure for `CCNc1c(C(=O)NC[C@@H](F)C(C)(C)O)cnc2ccc(-c3cncs3)cc12` [Example 28, (R)-4-(ethylamino)-N-(2-fluoro-3-hydroxy-3-methylbutyl)-6-(thiazol-5-yl)quinoline-3-carboxamide] is 81.2 nM; for `O=C(NCCC(F)F)c1cnc2ccc(-c3cn[nH]c3)cc2c1NCC(F)F` [Example 67, 4-((2,2-difluoroethyl)amino)-N-(3,3-difluoropropyl)-6-(1H-pyrazol-4-yl)quinoline-3-carboxamide] it is 22.9 nM. As to `CC(C)Nc1c(-c2cn(CCS(C)(=O)=O)nn2)cnc2ccc(-c3cn[nH]c3)cc12` [Example 137, N-isopropyl-3-(1-(2-(methylsulfonyl)ethyl)-1H-1,2,3-triazol-4-yl)-6-(1H-pyrazol-4-yl)quinolin-4-amine], the IC50 turned out to be 38.8 nM. Take `CC(C)Nc1c(C(=O)NC2CCN(C(=O)CC(F)(F)F)CC2)cnc2ccc(-c3cn[nH]c3)cc12` [Example 83, 4-(isopropylamino)-6-(1H-pyrazol-4-yl)-N-(1-(3,3,3-trifluoropropanoyl)piperidin-4-yl)quinoline-3-carboxamide]: the IC50 was 24.5 nM. Under `COC(=O)NC1CC(NC(=O)c2cnc3ccc(-c4cn[nH]c4)cc3c2NC2CC(F)(F)C2)C1` (centres unmarked) [Example 58, methyl ((1r,3r)-3-(4-((3,3-difluorocyclobutyl)amino)-6-(1H-pyrazol-4-yl)quinoline-3-carboxamido)cyclobutyl)carbamate] stands 29.9 nM. For `CC(C)Nc1c(C(=O)NC[C@@H](F)C(C)(C)O)cnc2ccc(-c3cccc(C#N)c3)cc12` [Example 6, (R)-6-(3-cyanophenyl)-N-(2-fluoro-3-hydroxy-3-methylbutyl)-4-(isopropylamino) quinoline-3-carboxamide], the IC50 came to 145 nM. The figure for `CC(C)(O)[C@H](F)CNC(=O)c1cnc2ccc(-c3cncs3)cc2c1NC1COC1` [Example 35, (R)—N-(2-fluoro-3-hydroxy-3-methylbutyl)-4-(oxetan-3-ylamino)-6-(thiazol-5-yl) quinoline-3-carboxamide] is 78 nM; for `CC(C)Nc1c(C(=O)NC2CN(S(C)(=O)=O)C2)cnc2ccc(-c3cn[nH]c3)cc12` [Example 92, 4-(isopropylamino)-N-(1-(methylsulfonyl)azetidin-3-yl)-6-(1H-pyrazol-4-yl)quinoline-3-carboxamide] it is 32.2 nM; for `CC(=O)NC1CC(NC(=O)c2cnc3ccc(-c4cn[nH]c4)cc3c2NC2CC(F)(F)C2)C1` (centres unmarked) [Example 57, N-((1r,3r)-3-acetamidocyclobutyl)-4-((3,3-difluorocyclobutyl)amino)-6-(1H-pyrazol-4-yl)quinoline-3-carboxamide] it is 22.6 nM.

In the case of `Cc1cc2ncc(C(=O)NCCC(C)(C)O)c(NC(C)C)c2cc1-c1cncs1` [Example 61, N-(3-hydroxy-3-methylbutyl)-4-(isopropylamino)-7-methyl-6-(thiazol-5-yl)quinoline-3-carboxamide], the half-inhibitory concentration (IC50) came to 231 nM. The figure for `CC(C)Nc1c(C(=O)NCCN2CCCCC2=O)cnc2ccc(-c3cn[nH]c3)cc12` [Example 86, 4-(isopropylamino)-N-(2-(2-oxopiperidin-1-yl)ethyl)-6-(1H-pyrazol-4-yl)quinoline-3-carboxamide] is 28.6 nM. Under `CC(C)Nc1c(C(=O)NCCC2CC2)cnc2ccc(Nc3cncc(F)c3)nc12` [Example 147, N-(2-cyclopropylethyl)-6-((5-fluoropyridin-3-yl)amino)-4-(isopropylamino)-1,5-naphthyridine-3-carboxamide] stands 900 nM. Regarding `CC(C)Nc1c(C(=O)NCC(=O)N2CCOCC2)cnc2ccc(-c3cn[nH]c3)cc12` [Example 90, 4-(isopropylamino)-N-(2-morpholino-2-oxoethyl)-6-(1H-pyrazol-4-yl)quinoline-3-carboxamide], the concentration for half-maximal inhibition (IC50) worked out at 34.4 nM. Under `CC(=O)N[C@H]1CC[C@H](NC(=O)c2cnc3ccc(-c4cccnc4)nc3c2NC(C)C)CC1` [Example 153, N-((1r,4r)-4-acetamidocyclohexyl)-4-(isopropylamino)-6-(pyridin-3-yl)-1,5-naphthyridine-3-carboxamide] stands 31.6 nM; under `CC(C)Nc1c(C(=O)NCCC(C)(C)O)cnc2ccc(-c3cncc(F)c3)cc12` [Example 72, 6-(5-fluoropyridin-3-yl)-N-(3-hydroxy-3-methylbutyl)-4-(isopropylamino)quinoline-3-carboxamide], 176 nM.
